Source: PubChem BioAssay AID1919001 (Molecular Pharmacology Branch, DTP, NCI, 2023)

System: 699152-130-R-J1-PDC complex spheroid growth
Test: Anticancer human tumor 699152-130-R-J1-PDC patient-derived pancreatic carcinoma cell line growth inhibition [AhR]
Details: for IC50: curve of first compound; for viability, T/C: stronger effect = lower value; active = viability on the fitted dose curve at most 10% of control; inactive = the rest
Method in brief: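 Agents were dosed in half-log steps down from roughly clinical Cmax, or from 10 microM where Cmax was unknown, alone and with AhR antagonists. Read-out: percent test/control growth of tumor spheroids containing HUVEC and MSC stromal cells.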

[1] = second compound 0.1 µM, first compound 0.000949 µM
[2] = second compound 0.1 µM, first compound 0.003 µM
[3] = second compound 0.1 µM, first compound 0.00949 µM
[4] = second compound 0.1 µM, first compound 0.03 µM
[5] = second compound 0.1 µM, first compound 0.0949 µM
[6] = second compound 0.1 µM, first compound 0.3 µM
[7] = second compound 0.316 µM, first compound 0.000949 µM
[8] = second compound 0.316 µM, first compound 0.003 µM
[9] = second compound 0.316 µM, first compound 0.00949 µM
[10] = second compound 0.316 µM, first compound 0.03 µM
[11] = second compound 0.316 µM, first compound 0.0949 µM
[12] = second compound 0.316 µM, first compound 0.3 µM
[13] = second compound 1 µM, first compound 0.000949 µM
[14] = second compound 1 µM, first compound 0.003 µM
[15] = second compound 1 µM, first compound 0.00949 µM
[16] = second compound 1 µM, first compound 0.03 µM
[17] = second compound 1 µM, first compound 0.0949 µM
[18] = second compound 1 µM, first compound 0.3 µM
[19] = second compound 3.16 µM, first compound 0.000949 µM
[20] = second compound 3.16 µM, first compound 0.003 µM
[21] = second compound 3.16 µM, first compound 0.00949 µM
[22] = second compound 3.16 µM, first compound 0.03 µM
[23] = second compound 3.16 µM, first compound 0.0949 µM
[24] = second compound 3.16 µM, first compound 0.3 µM
[25] = second compound 10 µM, first compound 0.000949 µM
[26] = second compound 10 µM, first compound 0.003 µM
[27] = second compound 10 µM, first compound 0.00949 µM
[28] = second compound 10 µM, first compound 0.03 µM
[29] = second compound 10 µM, first compound 0.0949 µM
[30] = second compound 10 µM, first compound 0.3 µM
[31] = second compound 0.1 µM, first compound 0.0316 µM
[32] = second compound 0.1 µM, first compound 0.1 µM
[33] = second compound 0.1 µM, first compound 0.316 µM
[34] = second compound 0.1 µM, first compound 1 µM
[35] = second compound 0.1 µM, first compound 3.16 µM
[36] = second compound 0.1 µM, first compound 10 µM
[37] = second compound 0.316 µM, first compound 0.0316 µM
[38] = second compound 0.316 µM, first compound 0.1 µM
[39] = second compound 0.316 µM, first compound 0.316 µM
[40] = second compound 0.316 µM, first compound 1 µM
[41] = second compound 0.316 µM, first compound 3.16 µM
[42] = second compound 0.316 µM, first compound 10 µM
[43] = second compound 1 µM, first compound 0.0316 µM
[44] = second compound 1 µM, first compound 0.1 µM
[45] = second compound 1 µM, first compound 0.316 µM
[46] = second compound 1 µM, first compound 1 µM
[47] = second compound 1 µM, first compound 3.16 µM
[48] = second compound 1 µM, first compound 10 µM
[49] = second compound 3.16 µM, first compound 0.0316 µM
[50] = second compound 3.16 µM, first compound 0.1 µM
[51] = second compound 3.16 µM, first compound 0.316 µM
[52] = second compound 3.16 µM, first compound 1 µM
[53] = second compound 3.16 µM, first compound 3.16 µM
[54] = second compound 3.16 µM, first compound 10 µM
[55] = second compound 10 µM, first compound 0.0316 µM
[56] = second compound 10 µM, first compound 0.1 µM
[57] = second compound 10 µM, first compound 0.316 µM
[58] = second compound 10 µM, first compound 1 µM
[59] = second compound 10 µM, first compound 3.16 µM
[60] = second compound 10 µM, first compound 10 µM
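Also: compound exposure lasted 7 days after spheroids had grown for 3 days.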

CC(C)CC(NC(=O)C(Cc1ccccc1)NC(=O)c1cnccn1)B(O)O (stereo not given) + Cc1ccccc1N=Nc1ccc(NC(=O)c2ccnn2C)c(C)c1
0.0171 µM: IC50 (second compound 10 µM)
0.0154 µM: IC50 (second compound 0.1 µM) | IC50 (second compound 1 µM)
0.0151 µM: IC50 (second compound 3.16 µM)
inactive: viability, T/C [1] 86% | viability, T/C [2] 93% | viability, T/C [3] 85.9% | viability, T/C [7] 86% | viability, T/C [8] 105% | viability, T/C [9] 86.9% | viability, T/C [13] 97.9% | viability, T/C [14] 96.8% | viability, T/C [15] 85.3% | viability, T/C [19] 86.4% | viability, T/C [20] 90.7% | viability, T/C [21] 82.9% | viability, T/C [25] 120% | viability, T/C [26] 116% | viability, T/C [27] 98.9%
0.0155 µM: IC50 (second compound 0.316 µM)
active: viability, T/C [4] 1.03% | viability, T/C [5] 0.47% | viability, T/C [6] 0.58% | viability, T/C [10] 0.65% | viability, T/C [11] 0.35% | viability, T/C [12] 0.4% | viability, T/C [16] 0.79% | viability, T/C [17] 0.52% | viability, T/C [18] 0.56% | viability, T/C [22] 1.35% | viability, T/C [23] 0.62% | viability, T/C [24] 0.61% | viability, T/C [28] 2.93% | viability, T/C [29] 0.98% | viability, T/C [30] 0.8%

CCc1c2c(nc3ccc(O)cc13)-c1cc3c(c(=O)n1C2)COC(=O)[C@]3(O)CC + Cc1ccccc1N=Nc1ccc(NC(=O)c2ccnn2C)c(C)c1
inactive: viability, T/C [1] 87.4% | viability, T/C [2] 86.4% | viability, T/C [3] 52.5% | viability, T/C [4] 46.3% | viability, T/C [5] 46.9% | viability, T/C [6] 34.1% | viability, T/C [7] 103% | viability, T/C [8] 80% | viability, T/C [9] 52.2% | viability, T/C [10] 47.1% | viability, T/C [11] 41.8% | viability, T/C [12] 38.9% | viability, T/C [13] 85% | viability, T/C [14] 78.2% | viability, T/C [15] 50.8% | viability, T/C [16] 45% | viability, T/C [17] 39.6% | viability, T/C [18] 34.2% | viability, T/C [19] 95.7% | viability, T/C [20] 82% | viability, T/C [21] 57.2% | viability, T/C [22] 45.6% | viability, T/C [23] 42.8% | viability, T/C [24] 29.7% | viability, T/C [25] 115% | viability, T/C [26] 87.5% | viability, T/C [27] 60.5% | viability, T/C [28] 51.2% | viability, T/C [29] 49.9% | viability, T/C [30] 39.4%
0.0128 µM: IC50 (second compound 0.1 µM)
0.0123 µM: IC50 (second compound 1 µM)
0.015 µM: IC50 (second compound 0.316 µM)
0.0223 µM: IC50 (second compound 3.16 µM)
0.0444 µM: IC50 (second compound 10 µM)

COc1cc(Nc2ncc3c(n2)-c2ccc(Cl)cc2C(c2c(F)cccc2OC)=NC3)ccc1C(=O)O + Cc1ccccc1N=Nc1ccc(NC(=O)c2ccnn2C)c(C)c1
inactive: viability, T/C [31] 89.9% | viability, T/C [32] 80.2% | viability, T/C [33] 65.3% | viability, T/C [34] 54.5% | viability, T/C [35] 54.4% | viability, T/C [36] 56.6% | viability, T/C [37] 83.1% | viability, T/C [38] 68.7% | viability, T/C [39] 65.5% | viability, T/C [40] 59.5% | viability, T/C [41] 51.7% | viability, T/C [42] 48.4% | viability, T/C [43] 86.8% | viability, T/C [44] 71.7% | viability, T/C [45] 74.3% | viability, T/C [46] 60.5% | viability, T/C [47] 56.9% | viability, T/C [48] 51.7% | viability, T/C [49] 86.3% | viability, T/C [50] 82.6% | viability, T/C [51] 68.9% | viability, T/C [52] 61.1% | viability, T/C [53] 54.2% | viability, T/C [54] 50.1% | viability, T/C [55] 91.7% | viability, T/C [56] 94.7% | viability, T/C [57] 74.8% | viability, T/C [58] 64.8% | viability, T/C [59] 66.8% | viability, T/C [60] 63.6%
6.41 µM: IC50 (second compound 0.316 µM)
> 10 µM: IC50 (second compound 0.1 µM) | IC50 (second compound 1 µM) | IC50 (second compound 3.16 µM) | IC50 (second compound 10 µM)

Nc1ccccc1NC(=O)c1ccc(CNC(=O)OCc2cccnc2)cc1 + Cc1ccccc1N=Nc1ccc(NC(=O)c2ccnn2C)c(C)c1
8.03 µM: IC50 (second compound 3.16 µM)
6.79 µM: IC50 (second compound 0.316 µM)
7.2 µM: IC50 (second compound 1 µM)
7.66 µM: IC50 (second compound 0.1 µM)
inactive: viability, T/C [31] 85.7% | viability, T/C [32] 97.6% | viability, T/C [33] 102% | viability, T/C [34] 111% | viability, T/C [35] 77.8% | viability, T/C [36] 41.6% | viability, T/C [37] 90.6% | viability, T/C [38] 93.8% | viability, T/C [39] 89.5% | viability, T/C [40] 90.7% | viability, T/C [41] 67.5% | viability, T/C [42] 41.1% | viability, T/C [43] 97.1% | viability, T/C [44] 95.3% | viability, T/C [45] 107% | viability, T/C [46] 97.4% | viability, T/C [47] 76.6% | viability, T/C [48] 39.4% | viability, T/C [49] 93.2% | viability, T/C [50] 93.3% | viability, T/C [51] 104% | viability, T/C [52] 112% | viability, T/C [53] 73.2% | viability, T/C [54] 44.5% | viability, T/C [55] 115% | viability, T/C [56] 116% | viability, T/C [57] 109% | viability, T/C [58] 102% | viability, T/C [59] 91.8% | viability, T/C [60] 58.2%
> 10 µM: IC50 (second compound 10 µM)

O=C(C=Cc1cccc(S(=O)(=O)Nc2ccccc2)c1)NO + Cc1ccccc1N=Nc1ccc(NC(=O)c2ccnn2C)c(C)c1
inactive: viability, T/C [31] 91.2% | viability, T/C [32] 109% | viability, T/C [33] 111% | viability, T/C [34] 110% | viability, T/C [35] 108% | viability, T/C [36] 97.8% | viability, T/C [37] 87.9% | viability, T/C [38] 99.4% | viability, T/C [39] 106% | viability, T/C [40] 114% | viability, T/C [41] 97.3% | viability, T/C [42] 95.4% | viability, T/C [43] 97.5% | viability, T/C [44] 118% | viability, T/C [45] 111% | viability, T/C [46] 116% | viability, T/C [47] 101% | viability, T/C [48] 96.2% | viability, T/C [49] 103% | viability, T/C [50] 102% | viability, T/C [51] 107% | viability, T/C [52] 115% | viability, T/C [53] 103% | viability, T/C [54] 81.5% | viability, T/C [55] 109% | viability, T/C [56] 114% | viability, T/C [57] 116% | viability, T/C [58] 122% | viability, T/C [59] 97% | viability, T/C [60] 85.2%
> 10 µM: IC50 (second compound 0.1 µM) | IC50 (second compound 0.316 µM) | IC50 (second compound 1 µM) | IC50 (second compound 3.16 µM) | IC50 (second compound 10 µM)

O=C(c1cc(Cc2n[nH]c(=O)c3ccccc23)ccc1F)N1CCN(C(=O)C2CC2)CC1 + Cc1ccccc1N=Nc1ccc(NC(=O)c2ccnn2C)c(C)c1
inactive: viability, T/C [31] 90.3% | viability, T/C [32] 92.8% | viability, T/C [33] 109% | viability, T/C [34] 101% | viability, T/C [35] 97.2% | viability, T/C [36] 78.5% | viability, T/C [37] 89.6% | viability, T/C [38] 84.2% | viability, T/C [39] 109% | viability, T/C [40] 90% | viability, T/C [41] 83.5% | viability, T/C [42] 85.2% | viability, T/C [43] 106% | viability, T/C [44] 105% | viability, T/C [45] 90.4% | viability, T/C [46] 93.8% | viability, T/C [47] 88.6% | viability, T/C [48] 85.5% | viability, T/C [49] 114% | viability, T/C [50] 99.3% | viability, T/C [51] 104% | viability, T/C [52] 94.1% | viability, T/C [53] 81.1% | viability, T/C [54] 83.1% | viability, T/C [55] 123% | viability, T/C [56] 121% | viability, T/C [57] 109% | viability, T/C [58] 89.3% | viability, T/C [59] 94% | viability, T/C [60] 85.7%
> 10 µM: IC50 (second compound 0.1 µM) | IC50 (second compound 0.316 µM) | IC50 (second compound 1 µM) | IC50 (second compound 3.16 µM) | IC50 (second compound 10 µM)
